According to article PMC7292393 (PLoS ONE, 2020):
Values joined by “and” are separate entries in the source; they are usually repeats but may differ in a detail not shown here. Identical values can stand only once. “Also recorded” adds a separate entry of the source. Like-named read-outs stand apart in the source and are kept apart here.

Assays:
human SUMO1 = target: T1, human SUMO1 (Homo sapiens, UniProt P63165); assay: SPR secondary screen / dose-dependent binding; set-up: key to SPR Screens 2°: ✓: dose-dependent saturation kinetics; ×: no indication of saturation kinetics
T1 construct: encoding amino acids 1–97 of mature human SUMO1; host or cells: E. coli BL21 Rosetta (DE3)
T1 sequence (P63165 1-97): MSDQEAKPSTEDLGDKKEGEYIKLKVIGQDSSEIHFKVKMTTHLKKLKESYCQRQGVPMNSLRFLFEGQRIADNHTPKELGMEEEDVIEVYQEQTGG

[1] = target: T2, sumoylation of HSF1 by SUMO1 (Homo sapiens, UniProt P63165); assay: In vitro sumoylation (SUMOlink SUMO-1 Kit), Western blot; type: biochemical; settings: 300 μM fisetin, 30°C for 3 hr
T2 construct: purchased Active Motif 40120; host or cells: HSF1 substrate made in house in E. coli BL21 Rosetta (DE3)
T2 sequence (P63165 1-97 limits assumed): as the sequence (P63165 1-97) above
From the text: (§1) To this end, we performed in vitro sumoylation experiments in which the cellular sumoylation reaction was reconstituted using purified human SUMO1, E1 activating enzyme, E2 conjugating enzyme, and two putative protein substrates (human tumor suppressor p53 and human transcription factor HSF1). E1 activating enzyme functions by transferring active SUMO1 protein to the E2 conjugating enzyme Ubc9, which in turn attaches SUMO1 onto target protein substrates. Both p53 and HSF1 proteins are linked to sumoylation as well as to cancer pathways.
(§2) Proteins were separated by SDS-PAGE using 4–20% or 7.5% Mini-PROTEAN TGX Precast Protein Gels (Bio-Rad, Hercules, CA) followed by detection with Bio-Safe Coomassie Stain (Bio-Rad). For Western immunoblotting experiments, proteins in SDS-PAGE gels were transferred onto a PVDF membrane at 4°C using Mini Trans-Blot Cell (Bio-Rad), blocked with 5% nonfat milk for 1 hr at room T or overnight at 4°C and incubated with the following primary antibodies at indicated dilutions for 1 hr at room T: 1:10,000 HSF1 polyclonal antibody (Enzo Life Sciences ADI-SPA-901-F; Lausen, Switzerland), 1:4000 p53 rabbit antibody (SUMOlink SUMO-1 Kit), 1:5000 SUMO-1 rabbit antibody (SUMOlink SUMO-1 Kit). Secondary antibody incubation was performed for 1 hr at room T using 1:10,000 goat anti-rabbit IgG polyclonal antibody (Enzo Life Sciences, ADI-SAB-300). […]

[2] = target: T3, sumoylation of tumor suppressor p53 by SUMO1 (Homo sapiens, UniProt P63165); assay: as above; type: biochemical; settings: 300 μM fisetin, 30°C for 3 hr
T3 construct: purchased Active Motif 40120
T3 sequence (P63165 1-97 limits assumed): as the sequence (P63165 1-97) above
From the text: as §1, §2

Kd (human SUMO1; fisetin ~12 to 250 μM, Fig 2I, average of six replicates, read-out: Kd (SPR, extended range of concentrations)): 228 µM and ~228 µM
SPR Screens 2° (human SUMO1; five concentrations 31.25-500 μM): ✓
Kd (human SUMO1; one-site hyperbola fit, 31.25-500 μM flavonoid, Fig 2A-C, read-out: Kd (SPR secondary screen)): 124 µM and ~124 µM
Kd (human SUMO1; range over the two experiments, Fig 2A and 2I, read-out: estimated Kd ranging (SPR)): 124 to 228 µM
sumoylation of HSF1 in vitro [1]: failed to alter sumoylation
SMILES: O=c1c(O)c(-c2ccc(O)c(O)c2)oc2cc(O)ccc12 [Fisetin, 3,3',4',7-tetrahydroxyflavone]
saturation binding in SPR secondary screen (human SUMO1; Fig 2A-H): exhibited binding that approached saturation
sumoylation of p53 in vitro [2]: no SUMO conjugates of p53 were detected; also recorded: completely inhibits sumoylation
